Assay results published in BindingDB's records for PubMed 7791120 (Hospital Saint-Antoine, 1995).
Values joined by “and” are separate entries in the source; they are usually repeats but may differ in a detail not shown here. Identical values can stand only once.

What follows are compounds tested against Neurotensin (Cavia porcellus, UniProt P32560).

Compound | Ki
COc1cccc(OC)c1-c1cc(C(=O)N[C@H](C(=O)O)C2CCCCC2)nn1-c1ccnc2cc(Cl)ccc12 | 1.7 nM and 4.5 nM
CCC(C)C(N)C(=O)C(C)(CC(=O)C(N)CCCCN)C(C(=O)C(N)Cc1ccc(O)cc1)(C(=O)C1CCCN1)C(N)(C(=O)O)C(=O)C(N)C(C)CC (centres undefined) [NSC_3025353] | 1600 nM
COc1cccc(OC)c1-c1cc(C(=O)NC2(C(=O)O)C3CC4CC(C3)CC2C4)nn1-c1ccnc2cc(Cl)ccc12 (centres undefined) | 0.99 nM and 2.5 nM
COc1cccc(OC)c1-c1cc(C(=O)N[C@@H](C(=O)O)C2CCCCC2)nn1-c1ccnc2cc(Cl)ccc12 [SR 49711] | 2000 nM and 2100 nM
